From publication PMC8178536 (Journal of Ethnopharmacology, 2021)
Like-named read-outs stand apart in the source and are kept apart here.

Key:
[1] = test system: SARS-CoV-2 S protein-pseudoviruses, 293T-ACE2 cells; assay: microbe, parasite or virus in culture; assay type: cell-based
[2] = molecular target: SARS-CoV-2 RBD (Severe acute respiratory syndrome coronavirus 2, UniProt P0DTC2); assay: biochemical; assay type: binding
[3] = molecular target: ACE2-RBD interaction (human ACE2 / SARS-CoV-2 S protein RBD) (Severe acute respiratory syndrome coronavirus 2, UniProt P0DTC2); assay: biochemical; assay type: binding, human; SARS-CoV-2
[4] = molecular target: ACE2 (Homo sapiens, UniProt Q9BYF1); assay type: binding; details: SPR, two-fold serial dilutions
[5] = test system: SARS-CoV-2 S protein-pseudoviruses, Calu-3 cells; assay type: cell-based
[6] = Severe acute respiratory syndrome coronavirus 2, 293T/ACE2, read-out: IC50, infectivity of S protein-pseudoviruses to 293T-ACE2 cells

Sequence of ACE2 (Q9BYF1 18-740): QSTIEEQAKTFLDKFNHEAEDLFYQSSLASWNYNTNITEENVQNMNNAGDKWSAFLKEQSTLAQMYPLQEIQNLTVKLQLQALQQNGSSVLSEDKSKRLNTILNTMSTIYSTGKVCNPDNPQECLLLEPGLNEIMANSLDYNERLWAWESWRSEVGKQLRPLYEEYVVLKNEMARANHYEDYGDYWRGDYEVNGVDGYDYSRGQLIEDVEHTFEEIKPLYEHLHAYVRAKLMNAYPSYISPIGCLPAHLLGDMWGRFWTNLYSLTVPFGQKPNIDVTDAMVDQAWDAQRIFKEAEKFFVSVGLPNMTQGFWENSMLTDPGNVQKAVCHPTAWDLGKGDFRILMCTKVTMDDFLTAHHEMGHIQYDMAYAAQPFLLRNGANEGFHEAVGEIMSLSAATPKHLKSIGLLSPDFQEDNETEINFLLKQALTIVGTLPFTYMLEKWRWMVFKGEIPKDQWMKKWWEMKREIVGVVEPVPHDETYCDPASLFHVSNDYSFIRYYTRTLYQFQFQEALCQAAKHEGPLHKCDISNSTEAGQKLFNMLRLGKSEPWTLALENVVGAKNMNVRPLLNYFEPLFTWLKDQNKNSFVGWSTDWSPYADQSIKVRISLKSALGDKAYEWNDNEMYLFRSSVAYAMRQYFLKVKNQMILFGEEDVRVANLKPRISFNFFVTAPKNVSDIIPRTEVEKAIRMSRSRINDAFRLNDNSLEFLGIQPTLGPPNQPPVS

| Compound | IC50 [1, 6] | Kd [2] | IC50 [3] | binding to immobilized ACE2 [4] | infectivity of SARS-CoV-2 S protein-pseudoviruses to Calu-3 cells [5] | IC50 ([1]; read-out: IC50, entry of S protein-pseudoviruses into 293T-ACE2 cells) |
| --- | --- | --- | --- | --- | --- | --- |
| O=C(O)c1cc(O)c2ccccc2n1 [Compound 2, 4-hydroxyquinoline-2-carboxylic acid] | 440 nM | 5280 nM | 70 nM | low or no binding | abolished the infectivity | – |
| soluble recombinant human ACE2 | – | – | – | – | – | 69.6 nM |
| O=C(O)c1cc(O)c2cc(O)ccc2n1 [Compound 1, 4,6-dihydroxyquinoline-2-carboxylic acid] | 1090 nM | 600 nM | 580 nM | – | – | – |
| COc1ccc2nc(C(=O)O)cc(O)c2c1 [Compound 3, 4-hydroxy-6-methoxyquinoline-2-carboxylic acid] | 750 nM | 5370 nM | 150 nM | – | – | – |
